Experimental data from US20090093476A1, “PYRROLO[1,2-A]QUINOXALINE DERIVATIVES AS ADENOSINE A3 RECEPTOR MODULATORS AND USES THEREOF” (FAUST PHARMACEUTICALS, priority 2005, published 2009).
pIC50: −log10 of the molar value.

Tests used:
Type in all cases: cell-based
HL-60 = assay: Cytotoxic activity, MTS assay, HL-60; conditions: Homo sapiens, HL-60, 96 hours
Method: (§1) This study aims to determine the cytotoxic activity of a compound of the invention against a panel of ten human cancer cell lines.
(§2) Paclitaxel (Taxol®, ref. T1912, Sigma) is used as positive control.
(§3) Human tumor cells were plated at 5,000 to 10,000 cells per well, with 24 h incubation time before treatment. Tumor cell lines were incubated for 96 hours with 10 concentrations, in ¼ dilution steps, of compound of the invention (from 3.8×10^−10 to 1.0×10^−4 M) and Paclitaxel (from 3.8×10^−13 to 1.0×10^−7 M). Experiments were repeated three times, each concentration being issued from quadruplicate. Control cells were treated with corresponding vehicle alone. At the end of the treatments, the cytotoxic activity was evaluated by a MTS assay (Baltrop J A et al, Bioorg. Med. Chem. Lett. 1991, 611-4).

U-937 = assay: Cytotoxic activity, MTS assay, U-937; conditions: Homo sapiens, U-937, 96 hours
Method: as §1, §2, §3

K-562 = assay: Cytotoxic activity, MTS assay, K-562; conditions: Homo sapiens, K562, K-562, 96 hours
Method: as §1, §2, §3

PANC-1 = assay: Cytotoxic activity, MTS assay, PANC-1; conditions: Homo sapiens, PANC-1, 96 hours
Method: as §1, §2, §3

HCT 116 = assay: Cytotoxic activity, MTS assay, HCT 116; conditions: Homo sapiens, HCT 116, 96 hours
Method: as §1, §2, §3

A2780 = assay: Cytotoxic activity, MTS assay, A2780; conditions: Homo sapiens, A2780, 96 hours
Method: as §1, §2, §3

HT-29 = assay: Cytotoxic activity, MTS assay, HT-29; conditions: Homo sapiens, HT-29, 96 hours
Method: as §1, §2, §3

PC-3 = assay: Cytotoxic activity, MTS assay, PC-3; conditions: Homo sapiens, PC-3, 96 hours
Method: as §1, §2, §3

U-87 MG = assay: Cytotoxic activity, MTS assay, U-87 MG; conditions: Homo sapiens, 96 hours
Method: as §1, §2, §3

A375 = assay: Cytotoxic activity, MTS assay, A375; conditions: Homo sapiens, A-375, A375, 96 hours
Method: as §1, §2, §3

Molecule CC(=O)O[C@H]1C(=O)[C@@]2(C)[C@H]([C@H](OC(=O)c3ccccc3)[C@]3(O)C[C@H](OC(=O)[C@H](O)[C@@H](NC(=O)c4ccccc4)c4ccccc4)C(C)=C1C3(C)C)[C@]1(OC(C)=O)CO[C@@H]1C[C@@H]2O [Paclitaxel] has a pIC50 (HL-60) of 8.18, a pIC50 (U-937) of 8.28 and a pIC50 (K-562) of 8.12. For the same molecule, the pIC50 (PANC-1) was less than 7.00, the pIC50 (HCT 116) was 8.25 and the pIC50 (A2780) was 7.11. For the same molecule, the pIC50 (HT-29) was 8.08, the pIC50 (PC-3) was 8.06 and the pIC50 (U-87 MG) was less than 7.00. It also gave a pIC50 (A375) of 8.19.
